According to patent US20220145264A1, “CULTURE MEDIUM FOR MAMMALIAN EXPANDED POTENTIAL STEM CELLS, COMPOSITION, AND METHODS THEREOF” (THE UNIVERSITY OF HONG KONG, priority 2019, published 2022):
“Also recorded” adds a separate entry of the source.

Legend:
[1] = system: H1-EPSCs; assay: EB formation assay of H1-EPSCs, lineage gene expression; format: cell-based, human; details: 5.0 ng/ml supplemented in hEPSCM
Procedure: Porcine and human EPSCs were trypsinised and seeded in gelatinised 6-well plates at a density of 4×10^6 cells/well for pre-differentiation. M15 media supplemented with 20 ng/ml ACTIVIN A (SCI) and 5 μM Rock inhibitor Y-27632 were used to culture the replated cells. The next day, the cells were detached using 0.25% trypsin/EDTA (Gibco, Cat. No. 25500-054) and plated to ultra-low cell attachment U-bottom 96-well plates (Corning, Cat. No. 7007) at a density of 5,000-6,000 cells/well in 200 μl M10 medium. After 7-8 days of growing, the EBs were collected for analysis. 0.25% (v/v) poly-vinyl alcohol (Sigma, Cat. No. 341584) was added in the medium to help cells aggregation.
Total RNA was isolated using an RNeasy Mini Kit (Qiagen, Cat. No. 74106) for cultured cells or RNeasy Micro Kit (Qiagen, Cat. No. 74034) for sorted NANOS3-mCherry^+ cells. RNA was subsequently quantified and treated with gDNA WipeOut to remove genomic DNA. Complementary DNA (cDNA) was prepared using a QuantiTect Reverse Transcription Kit (Qiagen, Cat. No. 205311). RT-qPCR primers or TaqMan Gene Expression Assays (Life Technologies) are listed in Supplementary Table 10 and 11. […] Gene expression was determined relative to GAPDH using the […]. […]

[2] = system: human ES cell (hESC) lines (H1, H9, M1, M10); assay: Culture of human ES cell lines in pEPSCM minus ACTIVIN A (colony formation); format: cell-based; details: removing ACTIVIN A (20 ng/ml) from pEPSCM
From the text: Human ESCs have been widely used in studying human embryo development in vitro and hold great potential for regenerative medicine. The finding that inhibition of SRC and Tankyrases is sufficient to convert mouse ESCs to mEPSCs and that these two inhibitors are required for the generation of pEPSCs raises the possibility that similar in vitro culture conditions may also work for other mammalian species. To explore this possibility, four established human ES cell (hESC) lines (H1, H9, Man1 or M1, and Man10 or M10 cells) are cultured in pEPSCM and passaged them up to three times. […] Removing ACTIVIN A (20 ng/ml) from pEPSCM led to considerably fewer cell colonies formed from H1 (<1.0%) and M1 (5.0%) ESC cultures, while none from H9 or M10 (Extended Data FIG. 7a), which is consistent with the inherent between-line heterogeneity of human ESCs. With further refinement of the culture conditions (for example, replacing WH-4-023 with another SRC inhibitor A419259 in hEPSCM, see Methods), morphologically homogenous and stable cell lines were established from single-cell sub-cloned H1 (H1-EPSCs) and M1 cells (M1-EPSCs) (FIG. 3a).

For “ACTIVIN A: Human Recombinant ACTIVIN A cytokine”, the “embryonic mesendoderm lineage differentiation / lineage gene expression in EBs” value [1] was “stronger propensity for embryonic mesendoderm lineage differentiation; also recorded: substantially increased”, the cell colonies formed ([2]; H1 ESC culture) was less than 1.0% and the cell colonies formed ([2]; H9) was “none”. For the same substance, the cell colonies formed ([2]; M1 ESC culture) was 5.0% and the cell colonies formed ([2]; M10) was “none”.
